The record followed here is patent US8163756B2 (priority 2004, dated 2012).

Common to all, as to assay type: biochemical
One experiment addresses T1, Abl kinase (Homo sapiens, UniProt P00519).
T1 sequence (P00519 229-512): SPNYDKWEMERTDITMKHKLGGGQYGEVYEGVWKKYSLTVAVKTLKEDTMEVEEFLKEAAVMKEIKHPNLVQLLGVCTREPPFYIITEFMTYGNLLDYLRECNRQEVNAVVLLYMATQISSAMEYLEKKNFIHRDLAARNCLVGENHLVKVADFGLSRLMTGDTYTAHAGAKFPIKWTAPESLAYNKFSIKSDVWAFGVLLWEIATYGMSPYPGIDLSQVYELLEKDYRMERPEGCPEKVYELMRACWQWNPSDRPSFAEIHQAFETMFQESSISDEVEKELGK
Briefly: Abl kinase assay A1 (pyruvate kinase/lactate dehydrogenase coupled, spectrophotometric). The following applies: Method A1; read-out: Abl Data (IC50). The method, then:
(§1) IC50 values were calculated from a series of percent inhibition values determined at a range of inhibitor concentrations using software routines as implemented in the GraphPad Prism software package.

A further experiment addresses B-Raf(V599E) kinase (Homo sapiens, UniProt P15056, V600E). The experiment can be described thus: B-Raf(V599E) kinase assay B1 (construct 1, MEK1 substrate, coupled spectrophotometric). How it is done: The test compounds were incubated with the reaction mixtureat 30° C. for 2 h. […] The reaction rate was calculated using the […] time frame. […] IC50 values were calculated from a series of percent inhibition values determined at a range of inhibitor concentrations using software routines as implemented in the GraphPad Prism software package.

For a further experiment, the target named is KDR kinase (Homo sapiens, UniProt P35968, DEL940-989/E990V). Briefly: KDR kinase assay K2 (as K1, 2.1 nM enzyme, 2 h pre-incubation, 1.0 mM ATP). The settings on record: Method K2; read-out: KDR Data (IC50). The method, then: as §1
Experiment [1] concerns the target phosphorylated p-38-alpha kinase (Homo sapiens, UniProt Q16539). Briefly: P-38 alpha kinase assay P1 (coupled spectrophotometric, 2 h pre-incubation). The settings on record: method P1 (2 h pre-incubation); read-out: P-38 Data.

KDR kinase, sequence (P35968 with tags, fused parts or gaps DEL940-989/E990V): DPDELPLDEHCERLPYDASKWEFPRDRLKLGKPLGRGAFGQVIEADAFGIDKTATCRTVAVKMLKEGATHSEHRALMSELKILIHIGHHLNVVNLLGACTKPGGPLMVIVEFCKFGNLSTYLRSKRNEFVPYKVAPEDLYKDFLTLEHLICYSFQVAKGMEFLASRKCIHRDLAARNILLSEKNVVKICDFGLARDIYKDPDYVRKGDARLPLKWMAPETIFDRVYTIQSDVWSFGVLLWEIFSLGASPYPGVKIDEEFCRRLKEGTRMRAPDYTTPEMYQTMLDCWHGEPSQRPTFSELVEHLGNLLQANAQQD
B-Raf(V599E) kinase, sequence (P15056 with tags, fused parts or gaps V600E): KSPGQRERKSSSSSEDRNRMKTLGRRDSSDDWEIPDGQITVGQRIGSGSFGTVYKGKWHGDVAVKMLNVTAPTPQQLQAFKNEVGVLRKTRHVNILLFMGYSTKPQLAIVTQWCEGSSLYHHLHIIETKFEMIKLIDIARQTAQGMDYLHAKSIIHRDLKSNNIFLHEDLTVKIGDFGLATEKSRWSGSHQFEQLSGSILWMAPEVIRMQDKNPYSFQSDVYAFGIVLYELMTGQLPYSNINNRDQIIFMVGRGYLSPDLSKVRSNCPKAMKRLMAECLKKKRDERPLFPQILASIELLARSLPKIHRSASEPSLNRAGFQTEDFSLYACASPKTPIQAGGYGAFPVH
phosphorylated p-38-alpha kinase, sequence (Q16539 1-360 isoform Q16539-2): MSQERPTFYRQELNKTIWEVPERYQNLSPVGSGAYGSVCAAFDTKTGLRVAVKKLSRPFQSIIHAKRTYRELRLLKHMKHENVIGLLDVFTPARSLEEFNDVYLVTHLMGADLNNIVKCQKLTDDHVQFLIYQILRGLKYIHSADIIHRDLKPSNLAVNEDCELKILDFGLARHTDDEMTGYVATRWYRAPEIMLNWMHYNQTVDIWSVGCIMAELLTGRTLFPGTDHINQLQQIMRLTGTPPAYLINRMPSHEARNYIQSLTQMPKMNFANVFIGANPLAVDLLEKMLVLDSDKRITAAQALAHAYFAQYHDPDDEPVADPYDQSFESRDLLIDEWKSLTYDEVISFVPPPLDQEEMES

With `COc1ccc(-n2nc(C(C)(C)C)cc2NC(=O)Nc2cccc(Cl)c2Cl)cc1` [Example 18, 1-[3-t-butyl-1-(4-methoxyphenyl)-1H-pyrazol-5-yl]-3-(2,3-dichlorophenyl)urea], the figures for the IC50 on Abl kinase, on B-Raf(V599E) kinase and on KDR kinase were 830 nM, 458 nM and 240 nM, respectively.

Take `CC(C)(C)c1cc(NC(=O)Nc2cccc(Cl)c2Cl)n(-c2cccc(CC(=O)N3CCCC(C(=O)O)C3)c2)n1` (stereo not shown) [Example 398, 1-[2-(3-{3-t-butyl-5-[3-(2,3-dichlorophenyl)-ureido]-1H-pyrazol-1-yl}-phenyl)acetyl]piperidine-3-carboxylic acid]: the IC50 at B-Raf(V599E) kinase came to 12 nM; in experiment [1], 26 nM; at KDR kinase, 2700 nM.

Turning to `CC(C)(C)c1cc(NC(=O)Nc2ccc(Cl)cc2)n(-c2cccc(C#N)c2)n1` [Example 7, 1-(3-t-butyl-1-(3-cyanophenyl)-1H-pyrazol-5-yl)-3-(4-chlorophenyl)urea], the IC50 at Abl kinase turned out to be 5200 nM; against B-Raf(V599E) kinase, 8.2 nM; at KDR kinase, 870 nM.

Consider `CC(C)(C)c1cc(NC(=O)Nc2ccc(Cl)cc2)n(-c2cnc3ccccc3c2)n1` [Example 56, 1-(3-t-butyl-1-(quinolin-3-yl)-1H-pyrazol-5-yl)-3-(4-chlorophenyl)urea], for which the IC50 at Abl kinase is 4800 nM; at KDR kinase, 3100 nM.

Regarding `CC(C(N)=O)c1cccc(-n2nc(C(C)(C)C)cc2NC(=O)Nc2cccc(Cl)c2Cl)c1` (stereo not shown) [Example 249, 1-(1-(3-(1-amino-1oxopropan-2-yl)phenyl)-3-t-butyl-1H-pyrazol-5-yl)-3-(2,3-dichlorophenyl)urea], the IC50 against B-Raf(V599E) kinase is 4.5 nM; in experiment [1], 11 nM; at KDR kinase, 590 nM.

`CC(C)(C)c1cc(NC(=O)Nc2cc(F)c(F)cc2F)n(-c2ccc3c(c2)CCN3S(C)(=O)=O)n1` [Example 110, 1-(3-t-butyl-1-(1-(methylsulfonyl)indolin-5-yl)-1H-pyrazol-5-yl)-3-(2,4,5-tri-fluorophenyl)urea]: the IC50 at Abl kinase was 360 nM; against B-Raf(V599E) kinase, 3.4 nM; at KDR kinase, 140 nM.

Regarding `COc1ccc(-n2nc(C(C)(C)C)cc2NC(=O)Nc2cccc(Cl)c2)cc1` [Example 240, 1-[3-t-butyl-1-(4-methoxyphenyl)-1H-pyrazol-5-yl]-3-(3-chlorophenyl)urea], the IC50 was 50 nM against B-Raf(V599E) kinase, 470 nM in experiment [1] and 3700 nM at KDR kinase.

Turning to `CC(C)(C)c1cc(NC(=O)Nc2cccc(Cl)c2Cl)n(-c2ccc(CC(=O)N3CCC(C(=O)O)CC3)cc2)n1` [Example 498, 1-[2-(4-{3-t-butyl-5-[3-(2,3-dichlorophenyl)ureido]-1H-pyrazol-1-yl}-phenyl)acetyl]piperidine-4-carboxylic acid], the IC50 against B-Raf(V599E) kinase stood at 52 nM; in experiment [1], 9 nM; at KDR kinase, 1700 nM.

For the compound `CC(C)(C)c1cc(NC(=O)Nc2cccc(F)c2F)n(-c2cccc(C#N)c2)n1` [Example 4, 1-[3-t-butyl-1-(3-cyan-phenyl)-1H-pyrazol-5-yl]-3-(2,3-difluorophenyl)urea], the IC50 is 2900 nM on Abl kinase and 310 nM on KDR kinase.

As to `COc1cccc(-n2nc(C(C)(C)C)cc2NC(=O)Nc2ccc(Cl)cc2Cl)c1` [Example 233, 1-(3-t-butyl-1-(3-methoxyphenyl)-1H-pyrazol-5-yl)-3-(2,4-dichlorophenyl)urea], the IC50 against B-Raf(V599E) kinase turned out to be 28 nM; in experiment [1], 50 nM; on KDR kinase, 410 nM.

With `CC(C)(C)c1cc(NC(=O)Nc2cc(F)cc(F)c2F)n(-c2ccc3ncccc3c2)n1` [Example 54, 1-(3-t-butyl-1-(quinolin-6-yl)-1H-pyrazol-5-yl)-3-(2,3,5-trifluorophenyl)urea], the IC50 is 120 nM at Abl kinase, 4.8 nM at B-Raf(V599E) kinase and 240 nM at KDR kinase.

As to `CC(C)(C)c1cc(NC(=O)Nc2cc(F)c(F)c(F)c2)n(-c2cccc(C#N)c2)n1` [Example 12, 1-(3-t-butyl-1-(3-cyanophenyl)-1H-pyrazol-5-yl)-3-(3,4,5-trifluorophenyl)urea], the IC50 was found to be 390 nM at Abl kinase and 280 nM at KDR kinase.

Consider `COc1cccc(-n2nc(C(C)(C)C)cc2NC(=O)Nc2ccc(C#N)cc2)c1` [Example 16, 1-(3-t-butyl-1-(3-methoxyphenyl)-1H-pyrazol-5-yl)-3-(4-cyanophenyl)urea], for which the IC50 stood at 5900 nM at Abl kinase, 1300 nM in experiment [1] and 3400 nM at KDR kinase.

As for `COc1ccc(-n2nc(C(C)(C)C)cc2NC(=O)Nc2ccccc2F)cc1` [Example 237, 1-[3-t-butyl-1-(4-methoxyphenyl)-1H-pyrazol-5-yl]-3-(2-fluorophenyl)urea], the IC50 worked out at 59 nM at B-Raf(V599E) kinase, 580 nM in experiment [1] and 4900 nM at KDR kinase.

For `Cn1ccc2cc(-n3nc(C(C)(C)C)cc3NC(=O)Nc3cccc(Cl)c3Cl)ccc21` [Example 117, 1-(3-t-butyl-1-(1-methyl-1H-indol-5-yl)-1H-pyrazol-5-yl)-3-(2,3-dichlorophenyl)urea], the IC50 at Abl kinase came to 230 nM; on B-Raf(V599E) kinase, 3.2 nM; in experiment [1], 59 nM; at KDR kinase, 58 nM.

As for `CC(C)(C)c1cc(NC(=O)Nc2cc(F)c(F)cc2F)n(-c2ccc3ncccc3c2)n1` [Example 53, 1-(3-t-butyl-1-(quinolin-6-yl)-1H-pyrazol-5-yl)-3-(2,4,5-trifluorophenyl)urea], the IC50 came out at 360 nM on Abl kinase, 4.5 nM against B-Raf(V599E) kinase and 490 nM at KDR kinase.

`CC(C)(C)c1cc(NC(=O)Nc2cccc(Cl)c2Cl)n(-c2ccc3c(c2)CC(C(N)=O)NC3)n1` (stereo not shown) [Example 188, 1-(3-t-butyl-1-(3-carbamoyl-1,2,3,4-tetrahydroisoquinolin-6-yl)-1H-pyrazol-5-yl)-3-(2,3-dichloro-phenyl)urea]: the IC50 on Abl kinase worked out at 110 nM; at B-Raf(V599E) kinase it was 5.8 nM; in experiment [1], 17 nM; on KDR kinase, 150 nM.

On to `CCOC(=O)Cc1cccc(-n2nc(C(C)(C)C)cc2NC(=O)Nc2cccc(Cl)c2Cl)c1` [Example 23, ethyl 2-(3-(3-t-butyl-5-(3-(2,3-dichlorophenyl)ureido)-1H-pyrazol-1-yl)phenyl)acetate], for which the IC50 on Abl kinase is 3800 nM; against B-Raf(V599E) kinase, 4.8 nM; in experiment [1], 21 nM; at KDR kinase, 1000 nM.

`CC(C)(C)c1cc(NC(=O)Nc2cccc(Cl)c2Cl)n(-c2ccc3c(c2)CCN3S(C)(=O)=O)n1` [Example 108, 1-(3-t-butyl-1-(1-(methylsulfonyl)indolin-5-yl)-1H-pyrazol-5-yl)-3-(2,3-dichlorophenyl)urea]: the IC50 at Abl kinase amounted to 250 nM; at B-Raf(V599E) kinase, 1.5 nM; in experiment [1] it was 9 nM; on KDR kinase, 13 nM.

As for `CC(C)(C)c1cc(NC(=O)Nc2cccc(Cl)c2Cl)n(-c2cccc(CC(=O)N3CCC[C@@H]3C(=O)O)c2)n1` [Example 400, (2R)-1-[2-(3-{3-t-butyl-5-[3-(2,3-dichlorophenyl)ureido]-1H-pyrazol-1-yl}phenyl)acetyl]pyrrolidine-2-carboxylic acid], the IC50 came to 19 nM on B-Raf(V599E) kinase, 46 nM in experiment [1] and 3700 nM at KDR kinase.

On to `CC(C)(C)c1cc(NC(=O)Nc2cc(F)ccc2F)n(-c2cccc(C#N)c2)n1` [Example 213, 1-(3-t-butyl-1-(3-cyanophenyl)-1H-pyrazol-5-yl)-3-(2,5-difluorophenyl)urea], for which the IC50 was 12 nM against B-Raf(V599E) kinase, 67 nM in experiment [1] and 210 nM at KDR kinase.
